Assay results published in patent US12728173B2, “Heptamethine cyanine near-infrared fluorescent dye, preparation method therefor and use thereof” (NANJING NUOYUAN MEDICAL DEVICES CO., LTD, priority 2024, dated 2026).

Assays:
[1] = Subcutaneous HepG2 tumor-bearing mouse models for in vivo imaging; conditions: tail vein, 0.5 mg/kg
Procedure: Subcutaneous HepG2 Tumor-Bearing Mouse Models (Human-Derived Liver Cancer Cells) for In Vivo Imaging
Test samples: the heptamethine cyanine near-infrared fluorescent dyes provided by Examples 1-4, and the heptamethine cyanine near-infrared fluorescent dyes provided by Comparative Examples 1-3.
Testing method: The subcutaneous HepG2 tumor-bearing mouse models were subjected to tail vein administration of the above samples (0.5 mg/kg, 100 μL of glucose injection), respectively. Indocyanine green (0.5 mg/kg, 100 μL of glucose injection) was taken as a control. After the administration, fluorescence imaging was performed using a surgical fluorescence imaging system (NANJING NUOYUAN MEDICAL DEVICES CO., LTD, 10B), at 0 h (before administration), 6 h, 12 h, 24 h, and 48 h in sequence.

tumor tissues = conditions: prior art CN111196896A; cited from earlier work

- hepatic accumulation and metabolism [1]: hepatic accumulation and non-metabolism
Structure (SMILES): CC1(C)C(/C=C/C2=C(Cl)C(=C/C=C3/N(CCCS(=O)(=O)O)c4ccccc4C3(C)C)/CCC2)=[N+](CCCS(=O)(=O)O)c2ccc(S(=O)(=O)O)cc21 [Comparative Example 1]
- hepatic accumulation (tumor tissues): deficiency of hepatic accumulation
- tumor retention (tumor tissues): exceeding 48 h
- tumor targeting capability compared with ICG (tumor tissues): stronger
